In patent US20230067277A1, “ANALOGUES OF MYCOSPORINE-LIKE AMINO ACID AND USE THEREOF AS SUNSCREENS” (BASF SE, priority 2020, published 2023):

Assays:
Type in all cases: physicochemical
[1] = Specific extinction coefficient (UV/VIS spectrophotometer); settings: for E (1%, 1 cm), maximum absorbance: d=1 cm, 250 nm to 500 nm
Protocol: The specific extinction coefficient of Compounds A to D was measured using a Perkin Elmer Lambda 650 UV/VIS Spectrophotometer. A stock solution of concentration c=1 mM of the UV-absorber was prepared in a 100 ml volumetric flask using either buffer or ethanol. Dilution steps followed in order to adjust the concentration, such that the extinction E at optical pathlength d=1 cm will be 1.0±0.5. UV spectrum was determined in a cuvette of an optical pathlength of d=1 cm at 250 nm to 500 nm. With the Beer-Lambert law one obtains the molar decadic extinction coefficient at any wavelength with: The respective specific extinction E %1.1 cm can be obtained via the following equation: […] where M=molecular weight of the UV-absorber. A di-sodium hydrogen phosphate/potassium dihydrogen phosphate buffer (ordering number 1.09439.1000) or ethanol (ordering number 1.00983.2511), each purchased from Merck was used.

[2] = Incorporation of UV filter into water phase of cosmetic formulation; settings: 2.00 in Formulations 1, 2 and 4; pH 7-8
Protocol: Formulations 1 to 4 and a Placebo formulation were manufactured as follows. Part A and part B (see Table 3) were prepared separately and heated to 75-80° C. Under increasing stirring, part B was incorporated to part A and homogenized with Ultra Turrax for 20 sec. at 11000 rpm. The mixture was let cooled down to rt under stirring and part C was added. At rt pH 7-8 was adjusted with NaOH.

[3] = Solubility test in cosmetic solvents and water; settings: for solubility: % m/V; for precipitation visible after: addition to the respective solvent
Protocol: The solubility of Compounds A to D was tested, wherein the addition of Compound A and B to the respective solvent had been stopped after 50% m/V. In case of Compound C and D, a precipitation after about 1% m/V had been visible. The respective pH-values (see Table 1) had been measured of the final solution or suspension, respectively.

[4] = Water, addition of Compound A and B stopped after 50% m/V
[5] = cosmetic solvent Cetiol Ultimate

Compound | specific extinction coefficient / absorbance, comparison among Compounds A to D (FIG. 1) ([1]; FIG. 1) | E (1%, 1 cm), maximum absorbance ([1]; buffer pH7 (phosphate buffer)) | incorporation of UV filter into the water phase in sufficiently high concentrations [2] | pH-value of the final solution or suspension ([3]; Water) | solubility [3, 4] [%] | solubility ([3]; cosmetic solvent Cetiol AB) | solubility [3, 5] | solubility ([3]; cosmetic solvent Myritol 318) | E (1%, 1 cm), maximum absorbance ([1]; in EtOH) | precipitation visible after [3]
CC1=C(NCCO)CCC/C1=N\CCO.Cl [Compound B, (E)-2-hydroxy-N-(3-((2-hydroxyethyl)amino)-2-methylcyclohex-2-en-1-ylidene)ethan-1-aminium chloride] | highest specific extinction coefficient | 1725 | could be incorporated into the water phase in sufficiently high concentrations | (pH 6) | >50.0 | insoluble | insoluble | insoluble |  | 
CC1=C(NCCOCCO)CCC/C1=N\CCOCCO.Cl [Compound A, (E)-2-(2-hydroxyethoxy)-N-(3-((2-(2-hydroxyethoxy)ethyl)amino)-2-methylcyclohex-2-en-1-ylidene)ethan-1-aminium chloride] |  | 943 | could be incorporated into the water phase in sufficiently high concentrations | (pH 6) | >50.0 | insoluble | insoluble | insoluble |  | 
CC1=C(Nc2ccccc2Br)CC/C1=N\c1ccccc1Br.Cc1ccc(S(=O)(=O)O)cc1 [Compound D, (E)-2-bromo-N-(3-((2-bromophenyl)amino)-2-methylcyclopent-2-en-1-ylidene)benzenaminium 4-methylbenzenesulfonate] |  |  | not been possible to solve | (pH 7) | <1.0 | <1.2% | <1.0% | <1.0% | 659 | about 1 % m/V
COc1ccc(/N=C2\CCC(Nc3ccc(OC)cc3)=C2C)cc1.Cc1ccc(S(=O)(=O)O)cc1 [Compound C, (E)-4-methoxy-N-(3-((4-methoxyphenyl)amino)-2-methylcyclopent-2-en-1-ylidene)benzenaminium 4-methylbenzenesulfonate] |  |  |  | (pH 7) | <1.0 | <1.2% | <1.0% | <1.0% | 737 | about 1 % m/V
